{
  "source": "patent US6855801B1",
  "about": "“Peptides modulating activities of heparin other glycosaminoglycans or proteoglycans” (Thomas Jefferson University, priority 1999, dated 2005)",
  "key": {"[1]": {"test": "Affinity coelectrophoresis (ACE) of radiolabeled heparin through peptides", "assay_type": "binding, pig", "conditions": "ACE, low Mr heparin", "from_the_text": "Preparation of Radiolabeled Heparin—Whole heparin from pig intestinal mucosa (Sigma) was tyramine end-labeled and radiolabeled with Na^125I (Amersham, Pharmacia Biotech, Inc., Piscataway, N.J.) to an average specific activity ≅1.0×10^7 CPM/μg as described^59. Radiolabeled heparin was fractionated on Sephadex G-100 (Bio-Rad Laboratories, Hercules, Calif.) and the final ≅12% of material to elute was retained as the low Mr material of ≦6,000 (Jordan, R., D. Beeler, and R. Rosenberg, J Biol Chem, 254:2902-2913, 1979; Laurent, T. C., et al., Biochem J, 175:691-701, 1978).\nBriefly, peptides were dissolved in 1×ACE running buffer, 50 mM sodium 3-(N-morpholino)-2-hydroxypropanesulfonate (MOPSO, Sigma)/125 mM sodium acetate, pH 7.0, and serially diluted in running buffer at 2× concentrations. Peptides were then mixed 1:1 with 2% agarose/1% CHAPS, 3-[(3-cholamidopropyl)dimethylammonio]-1-propanesulfonate, (Boehringer Mannheim, Indianapolis, Ind.), and loaded into wells of a 1% agarose gel. Radiolabeled heparin or HUVEC PGs were then loaded in a slot on the […] side of the gel, and electrophoresed through the peptide-containing wells, towards the cathode. Gels were dried and PG mobility was measured with a Phosphorimager (Molecular Dynamics, Sunnyvale, Calif.) by scanning each protein lane and determining the relative radioactivity content per. 88-μm pixel through the length of the lane. Retardation coefficient (R) measurements, binding isotherm curve fittings, and apparent Kd value determinations were calculated as detailed previously (Lee, M. K., and A. D. Lander, Proc Nat Acad Sci USA, 88:2768-2772, 1991; San Antonio, J. D., et al, Biochem, 32:47464755, 1993).\nSome peptides were also analyzed by ACE for heparin-binding under reducing conditions. Thus, after serial peptide dilution, β-mercaptoethanol (β-ME) was added at 5% to each peptide sample, and these were mixed 1:1 with 2% agarose/1% CHAPS/5% β-ME, and added to the ACE gel sample wells as usual."}, "unfractionated heparin [2]": {"test_system": "unfractionated heparin", "test": "Reversal of anti-thrombin effects of unfractionated heparin in vitro (thrombin clotting time in plasma)", "assay_type": "biochemical, human", "conditions": "heparin 0.5 U/ml; thrombin standardized to clotting time 20-22 seconds", "experimental": "Plasma was obtained from normal donors. Thrombin concentration (human alpha thrombin, Enzyme Research Laboratories, South Bend, Ind.) was standardized to produce a clotting time of 20-22 seconds. Heparin was added at 0.5 IU anti-thrombin activity/ml. The clotting time for heparin alone was approximately 3 minutes. To test the effects of the peptides in this system, one minute after addition of heparin to the plasma, the peptides were added in concentrations ranging from 1-200 μg/ml. After one minute, thrombin was added and the clotting time determined. The effects of the peptides were concentration dependent. The clotting time was restored to normal values in all samples at the dosages shown below in Table III. The ability of the peptides to neutralize heparin inhibition of thrombin clotting time was consistent with the binding affinities shown in Table I, and with the effectiveness against low molecular weight heparin anti-Factor Xa activity in Table II."}, "Lovenox": {"test_system": "Lovenox", "test": "Reversal of anti-Factor Xa activity in vitro (Stachrom Heparin chromogenic assay), Lovenox", "assay_type": "biochemical, human", "conditions": "0.5 U/ml anti-Factor Xa activity", "experimental": "(§1) Solutions of Lovenox, Orgaran, or unfractionated heparin (Sigma) were prepared in 0.32% sodium citrate or in normal human plasma to contain 0.5 U/ml anti-FXa activity. Calibrations were made against the standards provided by the Stachrom Heparin (Diagnostica Stago) assay kit. The heparin/ATIII complex was allowed to form at 37° C. for 2 minutes, peptide was added, the mixture was incubated for an additional 1-5 minutes, and then Factor Xa was added, and finally the color reagent, for one minute, and the absorbance was read at 405 nm. The increase in absorbance from the heparinized control to the test sample was divided by the difference in A405 between the heparinized control and the control without heparin to obtain the % reversal."}, "Orgaran": {"test_system": "Orgaran", "test": "Reversal of anti-Factor Xa activity in vitro (Stachrom Heparin chromogenic assay), Orgaran", "assay_type": "biochemical, human", "conditions": "0.5 U/ml anti-Factor Xa activity", "experimental": "as §1"}, "unfractionated heparin [3]": {"test_system": "unfractionated heparin", "test": "Reversal of anti-Factor Xa activity in vitro (Stachrom Heparin chromogenic assay), unfractionated heparin", "assay_type": "biochemical, human", "conditions": "0.5 U/ml anti-Factor Xa activity", "experimental": "as §1"}},
  "data": [
    {"sequence": "AKKARAAKKARAAKKARAAKKARAAKKARAAKKARA [(AKKARA)6, XBBXBX tandem repeat peptide]", "values": [
      {"measurement": "heparin-binding affinity in words", "setting": "[1]", "result": "strong"},
      {"measurement": "μg peptide/ml heparinized plasma needed to normalize thrombin time", "setting": "unfractionated heparin [2]", "result": "5 μg peptide/ml heparinized plasma"},
      {"measurement": "Percent Reversal of anti-Factor Xa Activity, Lovenox", "setting": "Lovenox; peptide 0.12 mg/ml in plasma", "result": 86, "unit": "%"},
      {"measurement": "Percent Reversal of anti-Factor Xa Activity, Lovenox", "setting": "Lovenox; peptide 0.4 mg/ml in plasma", "result": 86.5, "unit": "%"},
      {"measurement": "Percent Reversal of anti-Factor Xa Activity, Lovenox", "setting": "Lovenox; peptide 0.6 mg/ml in plasma", "result": 82.5, "unit": "%"},
      {"measurement": "Percent Reversal of anti-Factor Xa Activity, Orgaran", "setting": "Orgaran; peptide 0.12 mg/ml in plasma", "result": 74.5, "unit": "%"},
      {"measurement": "Percent Reversal of anti-Factor Xa Activity, Orgaran", "setting": "Orgaran; peptide 0.4 mg/ml in plasma", "result": 81.5, "unit": "%"},
      {"measurement": "Percent Reversal of anti-Factor Xa Activity, Orgaran", "setting": "Orgaran; peptide 0.6 mg/ml in plasma", "result": 77, "unit": "%"},
      {"measurement": "Percent Reversal of anti-Factor Xa Activity, Heparin (unfractionated)", "setting": "unfractionated heparin [3]; peptide 0.12 mg/ml in plasma", "result": 99, "unit": "%"},
      {"measurement": "Percent Reversal of anti-Factor Xa Activity, Heparin (unfractionated)", "setting": "unfractionated heparin [3]; peptide 0.4 mg/ml in plasma", "result": 97.5, "unit": "%"},
      {"measurement": "Percent Reversal of anti-Factor Xa Activity, Heparin (unfractionated)", "setting": "unfractionated heparin [3]; peptide 0.6 mg/ml in plasma", "result": 93, "unit": "%"}
    ]}
  ]
}
